Laboratory results taken from US9814236B2, “Agricultural or horticultural chemical, method of controlling plant diseases, and product for controlling plant diseases” (Kureha Corporation, priority 2013, dated 2017).
Like-named read-outs stand apart in the source and are kept apart here.

How the values were obtained:
Format in all cases: cell-based
[1] = tested on: wheat damping off (Gaeumannomyces graminis); test: In vitro antimicrobial activity test on PDA agar plates, 20° C., three days (Test Example 2)
Text: (§1) Additionally, in the above formula, R represents a fungal expansion suppression rate (%), dc represents the diameter of a colony on an untreated plate, and dt represents the diameter of a colony on an chemical-treated plate.
(§2) Inhibition rate during mixed use (theoretical value)=α+((100−α)×β)/100, note that, in the formula above, α and β respectively represent the inhibition rates of the compounds during single use of the compounds.
In the present test example, the antimicrobial properties of a mixed formulation of compound (1) and bixafen on wheat damping off (Gaeumannomyces graminis) were tested.
Meanwhile, wheat damping off was punched out from the periphery of a colony of wheat damping off using a cork borer having a diameter of 4 mm, and inoculated onto the PDA agar plates in which the chemical(s) was(were) mixed.

[2] = tested on: wheat leaf blight (Septoria tritici); test: In vitro antimicrobial activity test on PDA agar plates, 20° C., three days (Test Example 1)
Description: In the present test example, the antimicrobial properties of a mixed formulation of compound (1) and bixafen on wheat leaf blight (Septoria tritici) were tested.
as §1, §2

[3] = tested on: wheat leaf blight (Septoria tritici); test: In vitro antimicrobial activity test on PDA agar plates, 25° C., 14 days (Test Examples 4 to 7)
Description: as §1, §2
Testing and determination were performed in the same manner as in Test Example 4 except for using the thiophanate-methyl in place of the boscalid.
Test and determination were performed in the same manner as in Test Example 4 except for using the chlorothalonil in place of the boscalid.

[4] = tested on: gray mold disease (Botrytis cinerea); test: In vitro antimicrobial activity test on PDA agar plates, 20° C., two days (Test Examples 3, 8); details: Test Example 8
Description: as §1, §2
Test and determination were performed in the same manner as in Test Example 3 except for using the penthiopyrad in place of the isopyrazam.

[5] = tested on: gray mold disease (Botrytis cinerea); test: as above; details: Test Example 3

## Cn1cc(C(=O)Nc2ccc(F)cc2-c2ccc(Cl)c(Cl)c2)c(C(F)F)n1 [Bixafen, bixafen]
[1]; Bixafen 0.0393 ppm alone
  Fungal growth inhibition rate (%) Measured value: 0%
[1]; Bixafen 0.1575 ppm alone
  Fungal growth inhibition rate (%) Measured value: 3%
[1]; Bixafen 0.63 ppm alone
  Fungal growth inhibition rate (%) Measured value: 4%
[1]; Bixafen 2.5 ppm alone
  Fungal growth inhibition rate (%) Measured value: 29%
[2]; Bixafen 0.0393 ppm alone
  Fungal growth inhibition rate (%) Measured value: 0%
[2]; Bixafen 0.1575 ppm alone
  Fungal growth inhibition rate (%) Measured value: 6%
[2]; Bixafen 0.63 ppm alone
  Fungal growth inhibition rate (%) Measured value: 31%
[2]; Bixafen 2.5 ppm alone
  Fungal growth inhibition rate (%) Measured value: 54%

## COC(=O)NC(=S)Nc1ccccc1NC(=S)NC(=O)OC [Thiophanate-methyl, thiophanate-methyl]
[3]; Zymoseptoria tritici, 4TO7, Test Example 5, Thiophanate-methyl 0.010 ppm alone, read-out: Fungal growth inhibition rate (%) Measured value
  inhibition at 0.01 ppm: 0%
[3]; Zymoseptoria tritici, 4TO7, Test Example 5, Thiophanate-methyl 0.039 ppm alone, read-out: Fungal growth inhibition rate (%) Measured value
  inhibition at 0.039 ppm: 0%
[3]; Zymoseptoria tritici, 4TO7, Test Example 5, Thiophanate-methyl 0.156 ppm alone, read-out: Fungal growth inhibition rate (%) Measured value
  inhibition at 0.156 ppm: 0%
[3]; Zymoseptoria tritici, 4TO7, Test Example 5, Thiophanate-methyl 0.625 ppm alone, read-out: Fungal growth inhibition rate (%) Measured value
  inhibition at 0.625 ppm: 76%
[3]; Zymoseptoria tritici, 4TO7, Test Example 5, Thiophanate-methyl 2.5 ppm alone, read-out: Fungal growth inhibition rate (%) Measured value
  inhibition at 2.5 ppm: 100%

## CC(C)CC(C)c1sccc1NC(=O)c1cn(C)nc1C(F)(F)F (stereo not drawn) [Penthiopyrad, penthiopyrad]
[4]; Botrytis cinerea, Penthiopyrad 0.63 ppm alone, read-out: Fungal growth inhibition rate (%) Measured value
  inhibition at 0.63 ppm: 31%
[4]; Botrytis cinerea, Penthiopyrad 2.50 ppm alone, read-out: Fungal growth inhibition rate (%) Measured value
  inhibition at 2.5 ppm: 61%
[4]; Botrytis cinerea, Penthiopyrad 10.00 ppm alone, read-out: Fungal growth inhibition rate (%) Measured value
  inhibition at 10 ppm: 93%

## COC(=O)C1(C)CCC(Cc2ccc(Cl)cc2)C1(O)Cn1cncn1 (stereo not drawn) [Compound (1), 3-(4-chlorobenzyl)-2-hydroxy-1-methyl-2-(1H-1,2,4-triazol-1-ylmethyl) cyclopentane carboxylic acid methyl]
[5]; Compound (1) 0.078 ppm alone
  Fungal growth inhibition rate (%) Measured value: 4%
[4]; Compound (1) 0.078 ppm alone
  Fungal growth inhibition rate (%) Measured value: 13%
[3]; Test Example 4, Compound (1) 0.02 ppm alone
  Fungal growth inhibition rate (%) Measured value: 0%
[3]; Test Example 5, Compound (1) 0.005 ppm alone
  Fungal growth inhibition rate (%) Measured value: 23%
[3]; Test Example 6, Compound (1) 0.005 ppm alone
  Fungal growth inhibition rate (%) Measured value: 81%
[3]; Test Example 7, Compound (1) 0.02 ppm alone
  Fungal growth inhibition rate (%) Measured value: 7%
[1]; Compound (1) 0.005 ppm alone
  Fungal growth inhibition rate (%) Measured value: 0%
[2]; Compound (1) 0.005 ppm alone
  Fungal growth inhibition rate (%) Measured value: 0%

## O=C(Nc1ccccc1-c1ccc(Cl)cc1)c1cccnc1Cl [Boscalid, boscalid]
[3]; Zymoseptoria tritici, 4TO7, Test Example 4, Boscalid 0.0393 ppm alone, read-out: Fungal growth inhibition rate (%) Measured value
  inhibition at 0.0393 ppm: 0%
[3]; Zymoseptoria tritici, 4TO7, Test Example 4, Boscalid 0.1575 ppm alone, read-out: Fungal growth inhibition rate (%) Measured value
  inhibition at 0.1575 ppm: 0%
[3]; Zymoseptoria tritici, 4TO7, Test Example 4, Boscalid 0.63 ppm alone, read-out: Fungal growth inhibition rate (%) Measured value
  inhibition at 0.63 ppm: 31%
[3]; Zymoseptoria tritici, 4TO7, Test Example 4, Boscalid 2.5 ppm alone, read-out: Fungal growth inhibition rate (%) Measured value
  inhibition at 2.5 ppm: 49%
[3]; Zymoseptoria tritici, 4TO7, Test Example 4, Boscalid 10 ppm alone, read-out: Fungal growth inhibition rate (%) Measured value
  inhibition at 10 ppm: 100%

## N#Cc1c(Cl)c(Cl)c(Cl)c(C#N)c1Cl [Chlorothalonil, chlorothalonil]
[3]; Zymoseptoria tritici, 4TO7, Test Example 6, Chlorothalonil 0.010 ppm alone, read-out: Fungal growth inhibition rate (%) Measured value
  inhibition at 0.01 ppm: 0%
[3]; Zymoseptoria tritici, 4TO7, Test Example 6, Chlorothalonil 0.039 ppm alone, read-out: Fungal growth inhibition rate (%) Measured value
  inhibition at 0.039 ppm: 0%
[3]; Zymoseptoria tritici, 4TO7, Test Example 6, Chlorothalonil 0.156 ppm alone, read-out: Fungal growth inhibition rate (%) Measured value
  inhibition at 0.156 ppm: 0%
[3]; Zymoseptoria tritici, 4TO7, Test Example 6, Chlorothalonil 0.625 ppm alone, read-out: Fungal growth inhibition rate (%) Measured value
  inhibition at 0.625 ppm: 3%
[3]; Zymoseptoria tritici, 4TO7, Test Example 6, Chlorothalonil 2.5 ppm alone, read-out: Fungal growth inhibition rate (%) Measured value
  inhibition at 2.5 ppm: 30%

## CC(C)C1C2CCC1c1c(NC(=O)c3cn(C)nc3C(F)F)cccc12 (stereo not drawn) [Isopyrazam, isopyrazam]
[5]; Isopyrazam 0.0393 ppm alone
  Fungal growth inhibition rate (%) Measured value: 1%
[5]; Isopyrazam 0.1575 ppm alone
  Fungal growth inhibition rate (%) Measured value: 9%
[5]; Isopyrazam 0.63 ppm alone
  Fungal growth inhibition rate (%) Measured value: 23%
[5]; Isopyrazam 2.5 ppm alone
  Fungal growth inhibition rate (%) Measured value: 35%
[5]; Isopyrazam 10 ppm alone
  Fungal growth inhibition rate (%) Measured value: 69%

## Cn1cc(C(=O)Nc2ccccc2-c2cc(F)c(F)c(F)c2)c(C(F)F)n1 [Fluxapyroxad, fluxapyroxad]
[3]; Test Example 7, Fluxapyroxad 0.04 ppm alone
  Fungal growth inhibition rate (%) Measured value: 11%
[3]; Test Example 7, Fluxapyroxad 0.16 ppm alone
  Fungal growth inhibition rate (%) Measured value: 34%
[3]; Test Example 7, Fluxapyroxad 0.63 ppm alone
  Fungal growth inhibition rate (%) Measured value: 74%
